Several values for one entry are separate records, joined by “and”; a condition that tells them apart may be missing. Equal entries are not always repeated.
Experiments:
AT = conditions: background; read-out: IC50, inhibits AT; cited from earlier work
[1] = test system: mammalian anandamide transporter; assay: Anandamide uptake functional assay; format: cell-based, human; conditions: reference compound; U-937 cells, [3H]-AEA uptake; read-out: IC50 of AM-404 in this assay
Procedure: The characterization of anandamide uptake was performed with human monocytes (U-937 cells), using a 96 wells format (volume of the reaction 500 μL). Uptake of radiolabelled anandamide by U-937 cells (10^5 cells in 400 μL/well) occured during a 15 minutes incubation time at 37° C. in the presence of test compounds added in solution in 50 μL and 50 μL of [^3H]-AEA (2 nM)/AEA (98 nM).
U-937 cells and [^3H]-AEA/AEA were prepared in a Krebs buffer pH 7.4 containing 25 mM NaHCO3, 11 mM glucose, 50 μM ascorbic acid and 1% BSA. This incubation buffer is oxygenated for 5 minutes before incubation. Basal control is incubated for 15 minutes at 4° C., in absence of any test or reference compound to prevent uptake.
Following incubation, uptake was stopped by filtration through a “unifilter 96-well GFB plate” (Packard) washed with Krebs buffer containing 25 mM NaHCO3 to eliminate the free [^3H]-AEA. The radioactivity associated with the U-937 cells corresponding to the uptake was retained on the unifilter and was measured with a Topcount Microplate Scintillation Counter, (Packard) using Microscint 0 scintillation liquid (Packard).
FIGS. 3–5 depict certain compounds of the present invention and their IC50 values as determined in this assay. […]

mice = assay: Hot plate test in mice (nociceptive reaction latency); format: in vivo; conditions: i.v., Anandamide 20 mg/kg, Compound 4 10 mg/kg, cut-off 30 seconds; for Nociceptive Reaction Latency, Mean: N 10; for Nociceptive Reaction Latency, individual mice: hot plate 56° C.
Procedure: This experiment assessed the analgesic effects of anandamide, compound 4, and a combination of anadamide and compound 4 in the hot plate test in mice.
One hundred (100) male Swiss mice ICO: OF1 (IOPS Caw) (Iffa Credo, France) weighing 17 g to 23 g were used in the study. The mice were housed in a temperature (19.5–24.5° C.) and relative humidity (45–65%) controlled room with a 12-h light/dark cycle, with ad libitum access to filtered tap-water and standard pelleted laboratory chow (U.A.R., France) throughout the study. Upon receipt at animal facilities, they were housed 20 per cage and at least a 5-day acclimatization period was observed. Animals were individually identified on their tails.
Ten groups of 10 animals each were used in this study. The individual groups were treated as set forth below. The doses used are expressed in terms of free active substance. The test and reference substances and the vehicle were administered by intravenous route (i.v) in a random order with a volume of 5 mL/kg. Anandamide and compound 4 were concomitantly administered as a mixture by intravenous route under a volume of 10 mL/kg (Groups 3, 7 and 10).
Twenty, thirty and sixty minutes after dosing, a given mouse was placed on a metallic hot plate maintained at 56±0.2° C. The nociceptive reaction latency, characterized by a licking reflex of the forepaws or by a jumping off the hot plate, was recorded. The cut-off time was set to 30 seconds. See Eddy NB, Touchberry CF, Lieberman JE. “Synthetic analgesics.
The mean results from these experiments are presented graphically in FIG. 6. The results tabulated in FIG. 6 are expressed as mean±sem. ANOVA (2 ways): time/treatment's effect as well as interaction between the two, for vehicle, anandamide and association groups. Dunnett's test: * indicates a significant difference in comparison with the vehicle-treated group for P<0.05. Dunnett's test :† indicates a significant difference in comparison with the same treated group at t−60 min for P<0.05. ANOVA (1 ways): at t−30 min for vehicle, anandamide, compound 4 and association groups. Dunnett's test: ° indicates a significant difference in comparison with the vehicle-treated group for P<0.05. Vehicle: Saline+20% DMSO; n=10 mice per groups.

SMILES | IC50 (AT) [nM] | IC50 [1] [nM] | Nociceptive Reaction Latency, Mean (mice; 20 minutes post-administration) [s] | Nociceptive Reaction Latency, individual mice (mice; 20 minutes post-administration) | Nociceptive Reaction Latency, Mean (mice; 30 minutes post-administration) [s] | Nociceptive Reaction Latency, individual mice (mice; 30 minutes post-administration) | Nociceptive Reaction Latency, Mean (mice; 60 minutes post-administration) [s] | Nociceptive Reaction Latency, individual mice (mice; 60 minutes post-administration)
CCCCC/C=C\C/C=C\C/C=C\C/C=C\CCCC(=O)Nc1ccc(O)cc1 [AM-404, N-(4-hydroxyphenyl)arachidonamide] | ~2000 | 2000 |  |  |  |  |  | 
CCCCC/C=C\C/C=C\C/C=C\C/C=C\CCCC(=O)NCCO [Anandamide, N-(2-hydroxyethyl)arachidonamide] |  |  | 8.9 | 10.3 s and 21.2 s and 6.3 s and 8.8 s and 4.9 s and 5.3 s and 8.1 s and 7.8 s and 5.1 s and 11.5 s | 8.1 | 8.9 s and 7.5 s and 10.7 s and 7.9 s and 5.2 s and 9.7 s and 10 s and 7.1 s and 6.5 s and 7.8 s | 11.7 | 6.9 s and 11.1 s and 10.1 s and 9.3 s and 11.7 s and 8.9 s and 16.1 s and 13.5 s and 24.4 s and 4.6 s
C=CCOc1ccc(CN(CC=Cc2ccccc2)CCOC)cc1 [Compound 4, N-(4-Allyloxybenzyl)-N-(2-methoxyethyl)-N-(3-phenyl-allyl)amine] |  |  |  |  | 10.2 | 10 s and 12.8 s and 14.5 s and 4.5 s and 10.4 s and 4.2 s and 9.6 s and 13.5 s and 16.3 s and 6.1 s |  | 

Source: patent US7049329B2, “Amines that inhibit a mammalian anandamide transporter, and methods of use thereof” (Sepracor Inc., priority 2002, dated 2006)
